Results as given in patent publication US8404679B2, “Pyrrolidine derivatives as NK2 receptor antagonists” (Hoffmann-La Roche Inc., priority 2008, dated 2013).

Molecular target: T1, human NK2 receptor (Homo sapiens, UniProt P21452)
T1 construct: purchased Perkin Elmer biosignal Inc. 6110510
T1 sequence (P21452 1-398): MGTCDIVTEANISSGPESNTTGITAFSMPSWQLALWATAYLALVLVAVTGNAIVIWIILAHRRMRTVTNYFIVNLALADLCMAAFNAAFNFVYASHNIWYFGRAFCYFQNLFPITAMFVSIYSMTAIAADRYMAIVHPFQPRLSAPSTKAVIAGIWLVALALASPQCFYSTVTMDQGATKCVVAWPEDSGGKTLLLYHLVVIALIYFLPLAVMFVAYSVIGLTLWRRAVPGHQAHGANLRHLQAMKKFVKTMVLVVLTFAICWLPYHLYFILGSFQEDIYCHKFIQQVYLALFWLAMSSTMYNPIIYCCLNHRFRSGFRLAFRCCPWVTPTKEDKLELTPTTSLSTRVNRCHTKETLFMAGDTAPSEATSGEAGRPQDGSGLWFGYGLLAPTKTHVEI
Experiment: [3H]SR48968 competition binding assay
Conditions: [3H]SR48968 displacement, membranes of CHO cells stably expressing recombinant human NK2 receptor; Ki from IC50 by Cheng-Prussoff
Experimental: [^3H]SR48968 Competition Binding Assay
hNK2 receptor binding experiment were performed using [^3H]SR48968 (Catalog No. TRK398, specific activity: 27.0 Ci/mmol, Amersham, GE Healthcare UK limited, Buckinghamshire, UK) and membrane isolated from CHO cells stably expressing recombinant human NK2 receptor (product No. 6110510, Perkin Elmer biosignal Inc., Shelton, Conn., USA). After thawing, the membrane homogenates were centrifuged at 48,000×g for 10 min at 4° C., the pellets were resuspended in the 50 mM Tris-HCl, 3 mM MnCl2, 4 μg/mL Chymostatin, 0.04% BSA binding buffer at pH 7.4 to a final assay concentration of 6.5 μg protein/well. For inhibition experiments, membranes were incubated with [^3H]SR48968 at a concentration equal to KD value of radioligand and 10 concentrations of the inhibitory compound (0.0003-10 μM) (in a total reaction volume of 500 μl) for 75 min at room temperature (RT). At the end of the incubation, membranes were filtered onto unitfilter (96-well white microplate with bonded GF/C filter preincubated 1 h in 0.3% polyethylenimine, Packard BioScience, Meriden, Conn.) with a Filtermate 196 harvester (Packard BioScience) and washed 4 times with ice-cold 50 mM Tris-HCl, pH 7.4 buffer. Nonspecific binding was measured in the presence of 10 μM 1-{2-[(R)-3-(3,4-dichloro-phenyl)-1-(3,4,5-trimethoxy-benzoyl)-pyrrolidin-3-yl]-ethyl}-4-phenyl-piperidine-4-carboxylic acid amide. The radioactivity on the filter was counted (5 min) on a Packard Top-count microplate scintillation counter with quenching correction after addition of 45 μl of microscint 40 (Canberra Packard S. A., Zürich, Switzerland) and shaking for 1 h. Inhibition curves were fitted according to the Hill equation: y=100/(1+(x/IC50)^nH), where nH=slope factor using Excel-fit 4 software (Microsoft). IC50 values were derived from the inhibition curve and the affinity constant (Ki) values were calculated using the Cheng-Prussoff equation Ki=IC50/(1+[L]/KD) where [L] was the concentration of radioligand and KD was its dissociation constant at the receptor, derived from the saturation isotherm.

| Structure (SMILES) | Ki [nM] |
| --- | --- |
| COc1ccc(C(=O)N(C)[C@@H]2CN(C(=O)N3CCN(S(C)(=O)=O)CC3)C[C@H]2c2ccc(Cl)cc2)cc1C(F)(F)F (racemic) [Example 6, rac-N-[(3S,4R)-4-(4-Chloro-phenyl)-1-(4-methanesulfonyl-piperazine-1-carbonyl)-pyrrolidin-3-yl]-4-methoxy-N-methyl-3-trifluoromethyl-benzamide] | 10.7 |
| CN(C(=O)c1cccc(C(F)(F)F)c1)[C@@H]1CN(C(=O)N2CCN(S(C)(=O)=O)CC2)C[C@H]1c1ccc(Cl)cc1 (racemic) [Example 7, rac-N-[(3S,4R)-4-(4-Chloro-phenyl)-1-(4-methanesulfonyl-piperazine-1-carbonyl)-pyrrolidin-3-yl]-N-methyl-3-trifluoromethyl-benzamide] | 33.9 |
| COc1ccc(C(=O)N(C)[C@@H]2CN(C(=O)N3CCN(S(C)(=O)=O)CC3)C[C@H]2c2ccc(Cl)c(Cl)c2)cc1C(F)(F)F (racemic) [Example 8, rac-N-[(3S,4R)-4-(3,4-Dichloro-phenyl)-1-(4-methanesulfonyl-piperazine-1-carbonyl)-pyrrolidin-3-yl]-4-methoxy-N-methyl-3-trifluoromethyl-benzamide] | 2.33 |
| CN(C(=O)c1ccccc1)[C@@H]1CN(C(=O)N2CCN(S(C)(=O)=O)CC2)C[C@H]1c1ccc(Cl)c(Cl)c1 (racemic) [Example 9, rac-N-[(3S,4R)-4-(3,4-Dichloro-phenyl)-1-(4-methanesulfonyl-piperazine-1-carbonyl)-pyrrolidin-3-yl]-N-methyl-benzamide] | 86.9 |
| CN(C(=O)c1ccc(F)cc1)[C@@H]1CN(C(=O)N2CCN(S(C)(=O)=O)CC2)C[C@H]1c1ccc(Cl)c(Cl)c1 (racemic) [Example 10, rac-N-[(3S,4R)-4-(3,4-Dichloro-phenyl)-1-(4-methanesulfonyl-piperazine-1-carbonyl)-pyrrolidin-3-yl]-4-fluoro-N-methyl-benzamide] | 28.8 |
| CN(C(=O)c1cccc(Cl)c1)[C@@H]1CN(C(=O)N2CCN(S(C)(=O)=O)CC2)C[C@H]1c1ccc(Cl)c(Cl)c1 (racemic) [Example 11, rac-3-Chloro-N-[(3S,4R)-4-(3,4-dichloro-phenyl)-1-(4-methanesulfonyl-piperazine-1-carbonyl)-pyrrolidin-3-yl]-N-methyl-benzamide] | 14.3 |
| CN(C(=O)c1ccc(Cl)cc1)[C@@H]1CN(C(=O)N2CCN(S(C)(=O)=O)CC2)C[C@H]1c1ccc(Cl)c(Cl)c1 (racemic) [Example 12, rac-4-Chloro-N-[(3S,4R)-4-(3,4-dichloro-phenyl)-1-(4-methanesulfonyl-piperazine-1-carbonyl)-pyrrolidin-3-yl]-N-methyl-benzamide] | 2.75 |
| CN(C(=O)c1ccc(C#N)cc1)[C@@H]1CN(C(=O)N2CCN(S(C)(=O)=O)CC2)C[C@H]1c1ccc(Cl)c(Cl)c1 (racemic) [Example 13, rac-4-Cyano-N-[(3S,4R)-4-(3,4-dichloro-phenyl)-1-(4-methanesulfonyl-piperazine-1-carbonyl)-pyrrolidin-3-yl]-N-methyl-benzamide] | 23.7 |
| CCc1ccc(C(=O)N(C)[C@@H]2CN(C(=O)N3CCN(S(C)(=O)=O)CC3)C[C@H]2c2ccc(Cl)c(Cl)c2)cc1 (racemic) [Example 14, rac-N-[(3S,4R)-4-(3,4-Dichloro-phenyl)-1-(4-methanesulfonyl-piperazine-1-carbonyl)-pyrrolidin-3-yl]-4-ethyl-N-methyl-benzamide] | 1.17 |
| CN(C(=O)c1cccc(C#N)c1)[C@@H]1CN(C(=O)N2CCN(S(C)(=O)=O)CC2)C[C@H]1c1ccc(Cl)c(Cl)c1 (racemic) [Example 15, rac-3-Cyano-N-[(3S,4R)-4-(3,4-dichloro-phenyl)-1-(4-methanesulfonyl-piperazine-1-carbonyl)-pyrrolidin-3-yl]-N-methyl-benzamide] | 65.2 |
| CN(C(=O)c1ccc(OC(F)(F)F)cc1)[C@@H]1CN(C(=O)N2CCN(S(C)(=O)=O)CC2)C[C@H]1c1ccc(Cl)c(Cl)c1 (racemic) [Example 16, rac-N-[(3S,4R)-4-(3,4-Dichloro-phenyl)-1-(4-methanesulfonyl-piperazine-1-carbonyl)-pyrrolidin-3-yl]-N-methyl-4-trifluoromethoxy-benzamide] | 5.09 |
| CN(C(=O)c1cccc(F)c1)[C@@H]1CN(C(=O)N2CCN(S(C)(=O)=O)CC2)C[C@H]1c1ccc(Cl)c(Cl)c1 (racemic) [Example 17, rac-N-[(3S,4R)-4-(3,4-Dichloro-phenyl)-1-(4-methanesulfonyl-piperazine-1-carbonyl)-pyrrolidin-3-yl]-3-fluoro-N-methyl-benzamide] | 95.3 |
| CN(C(=O)c1cc(F)cc(C(F)(F)F)c1)[C@@H]1CN(C(=O)N2CCN(S(C)(=O)=O)CC2)C[C@H]1c1ccc(Cl)c(Cl)c1 (racemic) [Example 18, rac-N-[(3S,4R)-4-(3,4-Dichloro-phenyl)-1-(4-methanesulfonyl-piperazine-1-carbonyl)-pyrrolidin-3-yl]-3-fluoro-N-methyl-5-trifluoromethyl-benzamide] | 20.7 |
| CN(C(=O)c1ccc(C(F)(F)F)c(F)c1)[C@@H]1CN(C(=O)N2CCN(S(C)(=O)=O)CC2)C[C@H]1c1ccc(Cl)c(Cl)c1 (racemic) [Example 20, rac-N-[(3S,4R)-4-(3,4-Dichloro-phenyl)-1-(4-methanesulfonyl-piperazine-1-carbonyl)-pyrrolidin-3-yl]-3-fluoro-N-methyl-4-trifluoromethyl-benzamide] | 2.44 |
| CN(C(=O)c1cccc(Cl)c1F)[C@@H]1CN(C(=O)N2CCN(S(C)(=O)=O)CC2)C[C@H]1c1ccc(Cl)c(Cl)c1 (racemic) [Example 21, rac-3-Chloro-N-[(3S,4R)-4-(3,4-dichloro-phenyl)-1-(4-methanesulfonyl-piperazine-1-carbonyl)-pyrrolidin-3-yl]-2-fluoro-N-methyl-benzamide] | 13.1 |
| CN(C(=O)c1cccc(C(F)(F)F)c1F)[C@@H]1CN(C(=O)N2CCN(S(C)(=O)=O)CC2)C[C@H]1c1ccc(Cl)c(Cl)c1 (racemic) [Example 22, rac-N-[(3S,4R)-4-(3,4-Dichloro-phenyl)-1-(4-methanesulfonyl-piperazine-1-carbonyl)-pyrrolidin-3-yl]-2-fluoro-N-methyl-3-trifluoromethyl-benzamide] | 4.63 |
| CN(C(=O)c1ccc2occc2c1)[C@@H]1CN(C(=O)N2CCN(S(C)(=O)=O)CC2)C[C@H]1c1ccc(Cl)c(Cl)c1 (racemic) [Example 23, rac-Benzofuran-5-carboxylic acid [(3S,4R)-4-(3,4-dichloro-phenyl)-1-(4-methanesulfonyl-piperazine-1-carbonyl)-pyrrolidin-3-yl]-methyl-amide] | 10.2 |
| CN(C)c1ccc(C(=O)N(C)[C@@H]2CN(C(=O)N3CCN(S(C)(=O)=O)CC3)C[C@H]2c2ccc(Cl)c(Cl)c2)cc1 (racemic) [Example 24, rac-N-[(3S,4R)-4-(3,4-Dichloro-phenyl)-1-(4-methanesulfonyl-piperazine-1-carbonyl)-pyrrolidin-3-yl]-4-dimethylamino-N-methyl-benzamide] | 1.72 |
| Cc1cc(C(=O)N(C)[C@@H]2CN(C(=O)N3CCN(S(C)(=O)=O)CC3)C[C@H]2c2ccc(Cl)c(Cl)c2)ccc1F (racemic) [Example 25, rac-N-[(3S,4R)-4-(3,4-Dichloro-phenyl)-1-(4-methanesulfonyl-piperazine-1-carbonyl)-pyrrolidin-3-yl]-4-fluoro-3,N-dimethyl-benzamide] | 6.01 |
| COc1ccc(C(=O)N(C)[C@@H]2CN(C(=O)N3CCN(S(C)(=O)=O)CC3)C[C@H]2c2ccc(Cl)c(Cl)c2)cc1F (racemic) [Example 26, rac-N-[(3S,4R)-4-(3,4-Dichloro-phenyl)-1-(4-methanesulfonyl-piperazine-1-carbonyl)-pyrrolidin-3-yl]-3-fluoro-4-methoxy-N-methyl-benzamide] | 9.45 |
| CN(C(=O)c1ccc(F)c(F)c1)[C@@H]1CN(C(=O)N2CCN(S(C)(=O)=O)CC2)C[C@H]1c1ccc(Cl)c(Cl)c1 (racemic) [Example 27, rac-N-[(3S,4R)-4-(3,4-Dichloro-phenyl)-1-(4-methanesulfonyl-piperazine-1-carbonyl)-pyrrolidin-3-yl]-3,4-difluoro-N-methyl-benzamide] | 16.2 |
